SMILES strings stand for the structures. The source made the active and inactive calls.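 How the source made its calls: active means fitted curve falling to -50% or lower, with AC50 no more than twice the sample's top valid dose; inactive means the rest, including changes in the wrong direction.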

Our source for the AC50 and activity change, negative = cytotoxicity values is PubChem BioAssay AID720585 (Broad Institute, 2013).

The first assay concerns A549 viability, CellTiter-Glo ATP luminescence, 72 h. The assay can be described thus: A549 lung cell cytotoxicity, dose response, cytotoxicity control, CellTiter-Glo luminescence, dry powder samples (AID 720585).
Details: not given
On the technique in general: Cellular ATP, detected with luciferase, serves as a proxy for viable cell number.
In the case of `Cc1ccccc1/C=C(\CCC(=O)O)c1nc2ccccc2s1`, the AC50 (as a rule, the concentration giving half of the maximal activity seen) is > 26 µM (inactive).
Take `Cc1cc(C)n2nc(C(=O)Nc3cccnc3)nc2n1`: the AC50 is > 26 µM (inactive).
As for `CCc1ccc(N2CCN(C(=O)c3ccc4c(c3)OCO4)CC2)cc1`, the AC50 is > 26 µM (inactive).
For the compound `O=C(Nc1ccc(Cl)c(-c2nc3ccccc3[nH]2)c1)c1cccnc1`, the AC50 was > 26 µM (inactive).
As for `CC(=O)c1ccc(N2CCN(C(=O)c3ccccc3)CC2)cc1`, the AC50 was > 26 µM (inactive).

Tested on in the next assay: not listed separately
The description is as above. The conditions noted are these: A549 viability, CellTiter-Glo ATP luminescence, 72 h; at 26 µM (top of the series).
For `CC(=O)c1ccc(N2CCN(C(=O)c3cccc(F)c3)CC2)cc1`, the activity change, negative = cytotoxicity is -1.71% (inactive).
On to `O=C(Nc1ccncc1)c1cc2nc(C3CC3)cc(C(F)F)n2n1`, for which the activity change, negative = cytotoxicity is 2.81% (inactive).
Regarding `Cc1cc(C)n2nc(C(=O)Nc3cccnc3)cc2n1`, the activity change, negative = cytotoxicity is 0.879% (inactive).
For the compound `Cc1ccc(-c2cc(C(F)(F)F)n3nc(C(=O)Nc4cccnc4)cc3n2)cc1`, the activity change, negative = cytotoxicity is -7.78% (inactive).
For `CC(=O)c1ccc(N2CCN(C(=O)c3cccc(Cl)c3)CC2)cc1`, the activity change, negative = cytotoxicity is 4.97% (inactive).
Consider `O=C(Nc1cccc(Cl)c1)N1CCN(c2ccccc2)CC1`, for which the activity change, negative = cytotoxicity is -1.38% (inactive).
With `O=C(Nc1cccnc1)c1cnn2c(C(F)(F)F)cc(-c3ccccc3)nc12`, the activity change, negative = cytotoxicity was -2.52% (inactive).
Still for that read-out and setting: as for `COc1cccc(NC(=O)N2CCN(c3ccccc3)CC2)c1`, the figure is 8.71% (inactive).
`CC(=O)c1ccc(N2CCN(C(=O)c3ccc4ncsc4c3)CC2)cc1`: the activity change, negative = cytotoxicity is 2.15% (inactive).
The same measure, in the same setting: as for `COc1cccc(C(=O)N2CCN(c3ccc(C(C)=O)cc3)CC2)c1`, the figure is -3.71% (inactive); as for `COc1ccc(C(=O)N2CCN(c3ccc(C(C)=O)cc3)CC2)cc1`, 13.7% (inactive); as for `O=C(Nc1cccnc1)N1CCN(c2ccccc2)CC1`, -2.28% (inactive).
With `COc1ccc(N2CCN(C(=O)c3ccc4c(c3)OCO4)CC2)cc1`, the activity change, negative = cytotoxicity was -3.29% (inactive).
Regarding `Cc1ccc(/C=C(\CC(=O)O)c2nc3ccccc3s2)cc1[N+](=O)[O-]`, the activity change, negative = cytotoxicity is 7.43% (inactive).
Still for that read-out and setting: as for `CC(=O)c1ccc(N2CCN(C(=O)c3ccc4c(c3)OCCO4)CC2)cc1`, the figure is -10.1% (inactive).
With `O=C(Nc1ccc2snnc2c1)N1CCOCC1`, the activity change, negative = cytotoxicity is 9.86% (inactive).
For the compound `O=C(Nc1ccccc1)N1CCN(c2ccccc2)CC1`, the activity change, negative = cytotoxicity was -0.224% (inactive).
The same measure, in the same setting: the value for `O=C(Nc1ccc(Cl)cc1)c1cc2nc(C3CC3)cc(C(F)(F)F)n2n1` was 12.6% (inactive); that for `CC(=O)c1ccc(N2CCN(Cc3ccc4c(c3)OCO4)CC2)cc1` was -4.27% (inactive); that for `CCN(CC)c1ccc2cc(C(=O)c3cccs3)c(=O)oc2c1` was 7.58% (inactive).
On to `O=C(c1ccc2c(c1)OCO2)N1CCN(Cc2ccccc2)CC1`, for which the activity change, negative = cytotoxicity is 9.39% (inactive).
As for `CC(=O)c1ccc(N2CCN(C(=O)c3ccc(Br)cc3)CC2)c(F)c1`, the activity change, negative = cytotoxicity was -2.87% (inactive).
With `CC(=O)c1ccc(N2CCN(C(=O)c3ccc4c(c3)OCO4)CC2)cc1`, the activity change, negative = cytotoxicity is -12.8% (inactive).
On the same count and under the same terms, the value for `CC(=O)c1ccc(N2CCN(C(=O)c3ccc(Cl)cc3)CC2)cc1` was 3.76% (inactive); that for `CC(=O)c1ccc(N2CCN(C(=O)c3ccc(C)cc3)CC2)cc1` was -8.81% (inactive).
For the compound `CC(=O)c1ccc(N2CCN(C(=O)c3ccc(F)cc3)CC2)cc1`, the activity change, negative = cytotoxicity is -0.22% (inactive).
`CCOC(=O)N1CCN(C(=O)Nc2ccc3snnc3c2)CC1`: the activity change, negative = cytotoxicity is -11% (inactive).
Consider `Cc1cccc(/C=C(\CCC(=O)O)c2nc3ccccc3s2)c1`, for which the activity change, negative = cytotoxicity was -7.62% (inactive).
As to `O=C(Nc1ccc2[nH]ccc2c1)N1CCN(c2ccccc2)CC1`, the activity change, negative = cytotoxicity is -0.377% (inactive).
For `O=C(Nc1ccc2snnc2c1)N1CCCCC1`, the activity change, negative = cytotoxicity is -9.31% (inactive).
Regarding `O=C(Nc1ccc2snnc2c1)N1CCN(c2ccccc2)CC1`, the activity change, negative = cytotoxicity was -13.4% (inactive).
Still for that read-out and setting: the value for `Cc1ccc(NC(=O)N2CCN(c3ccccc3)CC2)cc1` was -5.15% (inactive); that for `COc1cc(/C=C/C(=O)Nc2cccnc2)cc(OC)c1OC` was 11.1% (inactive); that for `COc1ccc(NC(=O)N2CCN(c3ccccc3)CC2)cc1` was -3.72% (inactive).
In the case of `Cc1ccc(/C=C(\CCC(=O)O)c2nc3ccccc3s2)cc1[N+](=O)[O-]`, the activity change, negative = cytotoxicity was -3.79% (inactive).
Consider `O=C(O)CC/C(=C\c1ccc([N+](=O)[O-])cc1)c1nc2ccccc2s1`, for which the activity change, negative = cytotoxicity was 5.24% (inactive).
Same read-out and setting: the value for `CC(=O)c1ccc(N2CCN(C(=O)c3cccnc3)CC2)cc1` was 0.559% (inactive); that for `O=C(c1ccc2c(c1)OCO2)N1CCN(c2ccc(F)cc2)CC1` was -0.413% (inactive); that for `O=C(Nc1cccnc1)c1cc2nc(-c3cccs3)cc(C(F)(F)F)n2n1` was -3.55% (inactive).
As to `Cc1ccc(/C=C(\CCC(=O)O)c2nc3ccccc3s2)cc1`, the activity change, negative = cytotoxicity was -2.14% (inactive).
As to `O=C(c1ccc2c(c1)OCO2)N1CCN(c2ccccc2)CC1`, the activity change, negative = cytotoxicity is -3.52% (inactive).
For `COc1ccc(-c2cc(C(F)(F)F)n3nc(C(=O)Nc4cccnc4)cc3n2)cc1`, the activity change, negative = cytotoxicity is 5.08% (inactive).
For `O=C(COc1ccc2ccc(=O)oc2c1)N1CCN(c2ccc(F)cc2)CC1`, the activity change, negative = cytotoxicity is -15.6% (inactive).
As for `COC(=O)c1c(C(=O)OC)c(-c2cccc(F)c2)n2c1CS(=O)C2` (centres undefined), the activity change, negative = cytotoxicity is 2.89% (inactive).
For `O=C(Nc1ccc(F)cc1)N1CCN(c2ccccc2)CC1`, the activity change, negative = cytotoxicity was -4.84% (inactive).
As to `O=C(Nc1cccnc1)c1cnn2c(C(F)F)cc(C3CC3)nc12`, the activity change, negative = cytotoxicity was -2.75% (inactive).
For `O=C(c1ccc2c(c1)OCO2)N1CCN(c2ccc(Cl)cc2)CC1`, the activity change, negative = cytotoxicity was -6.96% (inactive).
Turning to `Cc1nc2ccc(NC(=O)N3CCN(c4ccccc4)CC3)cc2s1`, the activity change, negative = cytotoxicity is 0.35% (inactive).
On to `O=C(Nc1cccc(F)c1)N1CCN(c2ccccc2)CC1`, for which the activity change, negative = cytotoxicity was 5.56% (inactive).
For the compound `CC(C)(C)c1ccc(C(=O)N2CCN(c3ccc4c(c3)OCO4)CC2)cc1`, the activity change, negative = cytotoxicity is -3.25% (inactive).
The same measure, in the same setting: as for `COc1cccc(NC(=O)CCC2CCN(C(=O)c3ccc(C(C)=O)s3)CC2)c1`, the figure is -3.35% (inactive); as for `O=C(O)CC/C(=C\c1ccccc1[N+](=O)[O-])c1nc2ccccc2s1`, -7.05% (inactive).
For `Cc1nc2cc(NC(=O)N3CCN(c4ccccc4)CC3)ccc2o1`, the activity change, negative = cytotoxicity is -4.28% (inactive).
Same read-out and setting: as for `CCc1ccc(C(=O)N2CCN(Cc3ccc4c(c3)OCO4)CC2)cc1`, the figure is -0.901% (inactive).
